Holding throughout (type): cell-based
In one experiment the target is T1, Kir3.1/Kir3.4 (Homo sapiens, UniProt P48544+P48549).
T1 sequence (P48549 whole entry): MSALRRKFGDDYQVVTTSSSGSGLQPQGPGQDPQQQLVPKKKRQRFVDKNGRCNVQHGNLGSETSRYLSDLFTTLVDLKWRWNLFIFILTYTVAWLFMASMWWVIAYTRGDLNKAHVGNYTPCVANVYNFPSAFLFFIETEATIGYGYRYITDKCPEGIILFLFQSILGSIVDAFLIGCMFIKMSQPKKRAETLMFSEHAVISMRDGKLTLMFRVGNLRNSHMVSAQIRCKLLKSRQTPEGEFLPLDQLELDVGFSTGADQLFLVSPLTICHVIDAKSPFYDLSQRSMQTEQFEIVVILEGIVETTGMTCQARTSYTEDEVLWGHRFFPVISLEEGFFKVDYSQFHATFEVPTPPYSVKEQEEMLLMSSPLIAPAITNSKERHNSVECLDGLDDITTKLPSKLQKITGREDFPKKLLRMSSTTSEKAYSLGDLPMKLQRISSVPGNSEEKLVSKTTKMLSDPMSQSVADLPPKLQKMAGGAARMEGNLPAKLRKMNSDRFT
T1 sequence (P48544 whole entry): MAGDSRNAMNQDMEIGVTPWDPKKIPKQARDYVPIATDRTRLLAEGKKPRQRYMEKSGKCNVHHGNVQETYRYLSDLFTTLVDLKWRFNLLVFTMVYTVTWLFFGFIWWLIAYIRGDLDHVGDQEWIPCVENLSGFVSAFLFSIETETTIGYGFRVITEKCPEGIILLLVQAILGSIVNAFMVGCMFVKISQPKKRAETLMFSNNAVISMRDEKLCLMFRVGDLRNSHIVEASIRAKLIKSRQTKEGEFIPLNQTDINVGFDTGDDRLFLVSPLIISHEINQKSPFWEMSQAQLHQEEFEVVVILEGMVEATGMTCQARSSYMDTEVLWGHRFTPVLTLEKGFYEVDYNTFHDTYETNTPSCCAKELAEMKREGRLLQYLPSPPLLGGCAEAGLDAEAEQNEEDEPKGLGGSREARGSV
Description: Activation of human GIRK1/4 expressed in HEK293 cells co-expressing rat mGlu8 by thallium flux assay.

For experiment [1], the target named is Kir3.1/Kir3.2 (Homo sapiens) (UniProt P48549+P48051). As to the kind of experiment: Activation of human GIRK1/2 expressed in HEK293 cells co-expressing rat mGlu8 by thallium flux assay relative to control.
Experiment [2] concerns the target Kir3.1/Kir3.4 (Homo sapiens) (UniProt P48549+P48544). Description: Activation of human GIRK1/4 expressed in HEK293 cells co-expressing rat mGlu8 by thallium flux assay relative to control.
Another experiment concerns the target T2, Kir3.1/Kir3.2 (Homo sapiens, UniProt P48051+P48549).
T2 sequence (P48549 whole entry): T1 sequence (P48549 whole entry)
T2 sequence (P48051 whole entry): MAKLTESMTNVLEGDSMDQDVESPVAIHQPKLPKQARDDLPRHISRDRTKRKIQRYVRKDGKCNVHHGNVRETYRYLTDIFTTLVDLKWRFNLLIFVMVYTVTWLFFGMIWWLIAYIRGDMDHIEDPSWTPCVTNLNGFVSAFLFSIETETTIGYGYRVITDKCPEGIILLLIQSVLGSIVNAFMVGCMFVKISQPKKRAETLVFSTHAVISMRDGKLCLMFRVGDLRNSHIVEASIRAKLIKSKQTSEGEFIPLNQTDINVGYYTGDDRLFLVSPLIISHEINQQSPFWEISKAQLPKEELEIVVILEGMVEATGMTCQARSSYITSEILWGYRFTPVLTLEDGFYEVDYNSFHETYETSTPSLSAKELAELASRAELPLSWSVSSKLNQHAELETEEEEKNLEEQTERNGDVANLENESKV
Description: Activation of human GIRK1/2 expressed in HEK293 cells co-expressing rat mGlu8 by thallium flux assay.

pEC50: −log10 of the molar value.

Usually pEC50 stands for the negative decadic logarithm of the EC50, by convention in mol/L. Higher therefore signals a small EC50. The term Emax denotes the maximal effect, on the per cent scale that the assay sets. Turning to `Cc1cc(NC(=O)Cn2nnc(C3CC3)n2)n(C2CCCCC2)n1`, the pEC50 on Kir3.1/Kir3.4 was < 5.00; on Kir3.1/Kir3.2 it was < 5.52. The values for the Emax in experiment [1] and in experiment [2] were > 68% and > 25%, respectively.
The corresponding values for `CC1CC1c1cc(NC(=O)Cn2nnc(-c3ccccc3)n2)n(C2CCCCC2)n1` (stereo not given) are < 5.00, 6.07, 78% and > 19%.
On to `O=C(Cn1nnc(-c2ccccc2)n1)NC1CC2CCC1C2` (stereo not given), for which the pEC50 on Kir3.1/Kir3.4 is 5.56; on Kir3.1/Kir3.2, 5.70. Besides, the figures for the maximal response (Emax) in experiment [1] and in experiment [2] were 13% and 7%, respectively.
The like results for `Cc1cc(NC(=O)Cn2nnc(-c3ccccc3)n2)n(C2CCOCC2)n1` were, in that order, 5.69, 6.36, 115% and 109%.
For `O=C(Cn1nnc(-c2ccccc2)n1)Nc1cc(C2CC2)nn1C1CCCCC1`, the negative logarithm of the EC50 (pEC50) at Kir3.1/Kir3.4 is 6.18; at Kir3.1/Kir3.2 it was 6.57. For the same compound, the maximum response (Emax) came to 45% in experiment [1] and 15% in experiment [2].
On to `COc1ccc(-c2nnn(CC(=O)Nc3cc(C)nn3C3CCCCC3)n2)cc1`, for which the negative-log EC50 (pEC50) at Kir3.1/Kir3.4 was 6.11; on Kir3.1/Kir3.2 it was 6.76. Besides, the figures for the Emax in experiment [1] and in experiment [2] were 90% and 65%, respectively.
Regarding `Cc1cc(NC(=O)Cn2nnc(-c3ccccc3)n2)n(-c2ccccc2)n1`, the values for the pEC50 at Kir3.1/Kir3.4 and at Kir3.1/Kir3.2 were 5.39 and 5.52, respectively. The Emax in experiment [1] is 66%; in experiment [2], 25%.
For the compound `Cc1cc(NC(=O)Cn2nnc(-c3cc(Cl)cc(Cl)c3)n2)n(C2CCCCC2)n1`, the pEC50 is 5.67 at Kir3.1/Kir3.4 and 6.01 on Kir3.1/Kir3.2. Moreover, the figures for the Emax in experiment [1] and in experiment [2] were 82% and 51%, respectively.
For `Cc1cc(NC(=O)Cn2nnc(-c3cccc(C(F)(F)F)c3)n2)n(C2CCCCC2)n1`, the pEC50 was 6.07 at Kir3.1/Kir3.4 and 6.74 on Kir3.1/Kir3.2. Also, the results for the Emax in experiment [1] and in experiment [2] were 86% and 57%, respectively.
For the compound `Cc1cc(NC(=O)Cc2ccc(-c3ccc(Cl)c(Cl)c3)cc2)n(C2CCCCC2)n1`, the pEC50 was 5.36 at Kir3.1/Kir3.4 and 5.35 on Kir3.1/Kir3.2. In addition, the Emax in experiment [1] is 49%; in experiment [2], 11%.
As to `Cc1cc(NC(=O)Cn2nnc(-c3cccc(C#N)c3)n2)n(C2CCCCC2)n1`, the pEC50 at Kir3.1/Kir3.4 is 6.21; on Kir3.1/Kir3.2, 6.74. In addition, the figures for the Emax in experiment [1] and in experiment [2] were 80% and 55%, respectively.
Regarding `Cc1cc(NC(=O)Cn2nnc(-c3ccccc3)n2)n(C(C)C)n1`, the pEC50 is < 5.40 on Kir3.1/Kir3.4 and 6.25 at Kir3.1/Kir3.2. In addition, the Emax was 107% in experiment [1] and > 96% in experiment [2].
Turning to `Cc1cc(NC(=O)Cn2cc(-c3ccccc3)cn2)n(C2CCCCC2)n1`, the pEC50 on Kir3.1/Kir3.4 was 6.46; on Kir3.1/Kir3.2, 7.19. Also, the figures for the maximum response (Emax) in experiment [1] and in experiment [2] were 72% and 52%, respectively.
As to `Cc1cc(NC(=O)Cc2nnc(-c3ccccc3)s2)n(C2CCCCC2)n1`, the pEC50 at Kir3.1/Kir3.4 is < 5.00; at Kir3.1/Kir3.2, < 5.52. The Emax is > 60% in experiment [1] and > 21% in experiment [2].
Turning to `Cc1cc(NC(=O)Cn2nnc(-c3ccc(C(F)(F)F)cc3)n2)n(C2CCCCC2)n1`, the values for the pEC50 at Kir3.1/Kir3.4 and on Kir3.1/Kir3.2 were 6.35 and 6.62, respectively. Also, the Emax was 94% in experiment [1] and 50% in experiment [2].
The like results for `Cc1cc(NC(=O)Cn2nnc(-c3ccccn3)n2)n(C2CCCCC2)n1` were, in that order, < 4.48, 4.84, 81% and > 41%.
As for `Cc1ccc(-c2nnn(CC(=O)Nc3cc(C)nn3C3CCCCC3)n2)cc1`, the values for the pEC50 on Kir3.1/Kir3.4 and on Kir3.1/Kir3.2 were 6.39 and 6.95, respectively. Also, the values for the Emax in experiment [1] and in experiment [2] were 86% and 64%, respectively.
On to `Cc1cc(NC(=O)Cn2nnc(-c3ccccc3F)n2)n(C2CCCCC2)n1`, for which the values for the negative logarithm of the EC50 (pEC50) at Kir3.1/Kir3.4 and on Kir3.1/Kir3.2 were 6.35 and 6.73, respectively. The Emax is 88% in experiment [1] and 60% in experiment [2].
`COc1cccc(-c2nnn(CC(=O)Nc3cc(C)nn3C3CCCCC3)n2)c1`: the pEC50 is 6.52 on Kir3.1/Kir3.4 and 6.93 at Kir3.1/Kir3.2. Further, the Emax in experiment [1] was found to be 76%; in experiment [2], 40%.
For `Cc1cc(NC(=O)Cn2ccc(-c3ccccc3)n2)n(C2CCCCC2)n1`, the pEC50 at Kir3.1/Kir3.4 was 6.00; on Kir3.1/Kir3.2 it was 6.29. The Emax in experiment [1] came to 88%; in experiment [2], 49%.
`Cc1cc(NC(=O)Cn2nnc(-c3ccnc(F)c3)n2)n(C2CCCCC2)n1`: the figures for the pEC50 on Kir3.1/Kir3.4 and on Kir3.1/Kir3.2 were 5.87 and 6.36, respectively. In addition, the Emax in experiment [1] is 95%; in experiment [2], 68%.
In the case of `Cc1cc(NC(=O)Cn2nnc(-c3cccnc3)n2)n(C2CCCCC2)n1`, the pEC50 was 5.31 at Kir3.1/Kir3.4 and 5.71 at Kir3.1/Kir3.2. For the same compound, the Emax in experiment [1] amounted to 96%; in experiment [2], 80%.
In the case of `Cc1cc(NC(=O)Cc2csc(-c3ccccc3)n2)n(C2CCCCC2)n1`, the pEC50 on Kir3.1/Kir3.4 was < 5.52; on Kir3.1/Kir3.2 it was 5.88. In addition, the results for the Emax in experiment [1] and in experiment [2] were 44% and > 18%, respectively.
As for `Cc1cc(NC(=O)Cn2nnc(-c3ccc(F)cc3)n2)n(C2CCCCC2)n1`, the pEC50 on Kir3.1/Kir3.4 is 6.20; at Kir3.1/Kir3.2 it was 6.74. Moreover, the maximal response (Emax) in experiment [1] stood at 92%; in experiment [2] it was 74%.
`Cc1cc(NC(=O)Cn2nnc(-c3cccc(F)n3)n2)n(C2CCCCC2)n1`: the pEC50 is < 5.00 on Kir3.1/Kir3.4 and < 5.52 at Kir3.1/Kir3.2. Also, the Emax is > 83% in experiment [1] and > 38% in experiment [2].
Regarding `Cc1cccc(-c2nnn(CC(=O)Nc3cc(C)nn3C3CCCCC3)n2)c1`, the pEC50 is 6.36 on Kir3.1/Kir3.4 and 6.89 on Kir3.1/Kir3.2. The Emax came to 93% in experiment [1] and 63% in experiment [2].
For `Cc1cc(NC(=O)Cc2cccc(-c3ccccc3)c2)n(C2CCCCC2)n1`, the results for the pEC50 on Kir3.1/Kir3.4 and on Kir3.1/Kir3.2 were < 5.40 and 6.43, respectively. Besides, the Emax in experiment [1] is 72%; in experiment [2], > 51%.
In the case of `Cc1cc(NC(=O)Cn2nnc(-c3ccccc3)n2)n(C2CC2)n1`, the pEC50 on Kir3.1/Kir3.4 is < 5.00; at Kir3.1/Kir3.2, < 5.30. For the same compound, the maximum response (Emax) was > 78% in experiment [1] and > 39% in experiment [2].
The corresponding values for `Cc1cc(NC(=O)Cn2nnc(-c3ccccc3)n2)n(Cc2ccccc2)n1` are 6.07, 6.31, 74% and 48%.
Take `Cc1cc(NC(=O)Cn2nnc(-c3ccc(Cl)c(C)c3)n2)n(C2CCCCC2)n1`: the pEC50 at Kir3.1/Kir3.4 is 5.82; on Kir3.1/Kir3.2, 6.15. In addition, the Emax in experiment [1] was determined as 89%; in experiment [2], 51%.
For the compound `Cc1cc(NC(=O)Cn2nnc(-c3ccccc3)n2)n(CC(F)(F)F)n1`, the pEC50 is < 5.00 at Kir3.1/Kir3.4 and < 5.22 at Kir3.1/Kir3.2. The maximal response (Emax) in experiment [1] was > 105%; in experiment [2], > 97%.
On to `Cc1cc(NC(=O)Cc2ncc(-c3ccccc3)o2)n(C2CCCCC2)n1`, for which the results for the pEC50 on Kir3.1/Kir3.4 and on Kir3.1/Kir3.2 were 5.95 and 6.20, respectively. For the same compound, the maximum response (Emax) was 72% in experiment [1] and 27% in experiment [2].
For the compound `Cc1cc(NC(=O)Cn2nnc(-c3ccccc3)n2)n(C2CCCC2)n1`, the pEC50 at Kir3.1/Kir3.4 is 6.21; on Kir3.1/Kir3.2, 6.79. The values for the Emax in experiment [1] and in experiment [2] were 105% and 84%, respectively.
For the compound `Cc1cc(NC(=O)Cc2ccc(-c3ccccc3)cc2)n(C2CCCCC2)n1`, the pEC50 on Kir3.1/Kir3.4 was 5.74; on Kir3.1/Kir3.2, 5.78. The Emax in experiment [1] was found to be 69%; in experiment [2], 20%.
Take `CCC(C)n1nc(C)cc1NC(=O)Cn1nnc(-c2ccccc2)n1` (stereo not given): the pEC50 is < 5.00 on Kir3.1/Kir3.4 and < 5.30 at Kir3.1/Kir3.2. Also, the Emax in experiment [1] was > 69%; in experiment [2], > 20%.
